Earlier results as cited in patent publication US6855805B2 (priority 1999, dated 2005).

Test system: neuromuscular block
Conditions: dose mg/kg: Sux 1.0, Org 9847 1.5, Rocuronium 0.6, Mivacurium 0.2, Vecuronium 0.1, Cisatracurium 0.1
For `C=CC[N+]1([C@H]2C[C@H]3[C@@H]4CC[C@H]5C[C@H](O)[C@@H](N6CCOCC6)C[C@]5(C)[C@H]4CC[C@]3(C)[C@H]2OC(C)=O)CCCC1` [Rocuronium], the “Onset Time” value is given as 80 s, the “Recovery 25%” value is given as 40 min and the “Recovery 75%” value is given as 60 min.
For `C[N+](C)(C)CCOC(=O)CCC(=O)OCC[N+](C)(C)C` [Sux, succinylcholine chloride], the “Onset Time” value is listed as 60 s, the “Recovery 25%” value is listed as 5 to 7 min and the “Recovery 75%” value is listed as 10 min.
In the case of `CC(=O)O[C@H]1C[C@@H]2CC[C@@H]3[C@H](CC[C@@]4(C)[C@H]3C[C@H]([N+]3(C)CCCCC3)[C@@H]4OC(C)=O)[C@@]2(C)C[C@@H]1N1CCCCC1` [Vecuronium], the “Onset Time” value is given as 120 to 180 s, the “Recovery 25%” value is given as 40 min and the “Recovery 75%” value is given as 60 min.
In the case of `COc1cc2c(cc1OC)[C@@H](Cc1cc(OC)c(OC)c(OC)c1)[N+](C)(CCCOC(=O)CC/C=C/CCC(=O)OCCC[N+]1(C)CCc3cc(OC)c(OC)cc3[C@H]1Cc1cc(OC)c(OC)c(OC)c1)CC2` (stereo partly drawn) [Mivacurium], the “Onset Time” value is given as 150 s, the “Recovery 25%” value is given as 20 min and the “Recovery 75%” value is given as 27 min.
In the case of `COc1ccc(C[C@@H]2c3cc(OC)c(OC)cc3CC[N@+]2(C)CCC(=O)OCCCCCOC(=O)CC[N@@+]2(C)CCc3cc(OC)c(OC)cc3[C@H]2Cc2ccc(OC)c(OC)c2)cc1OC` [Cisatracurium], the “Onset Time” value is listed as 120 to 180 s, the “Recovery 25%” value is listed as 45 min and the “Recovery 75%” value is listed as 60 to 70 min.
